Results: the NIST ThermoML archive (doi:10.1016/j.jct.2013.10.034)

Assay: xn = mol fraction of the nth substance listed
Details: 100 kPa, Liquid; for viscosity: Falling or rolling sphere viscometry; for mass density: Vibrating tube method

CCCC[N+]1(C)CCCCC1.N#C[N-]C#N [1-butyl-1-methylpiperidinium dicyanamide] + O
Details | mass density [kg/m3] | viscosity [mPa·s]
298.15 K, x1 = 0.0936 | 1007.95 | 6.144
298.15 K, x1 = 0.1748 | 1011.38 | 10.16
298.15 K, x1 = 0.2651 | 1013.31 | 16.96
298.15 K, x1 = 0.3581 | 1014.27 | 24.65
298.15 K, x1 = 0.4952 | 1014.9 | 36.93
298.15 K, x1 = 0.6246 | 1015.36 | 49.82
298.15 K, x1 = 0.7878 | 1015.65 | 72.53
298.15 K, x1 = 0.9216 | 1015.91 | 103.3
298.15 K, x1 = 1 | 1016.13 | 123.3
303.15 K, x1 = 0.0936 | 1004.63 | 5.247
303.15 K, x1 = 0.1748 | 1008.21 | 8.56
303.15 K, x1 = 0.2651 | 1010.2 | 14.05
303.15 K, x1 = 0.3581 | 1011.26 | 20.16
303.15 K, x1 = 0.4952 | 1012.13 | 29.68
303.15 K, x1 = 0.6246 | 1012.52 | 40.79
303.15 K, x1 = 0.7878 | 1012.82 | 57.58
303.15 K, x1 = 0.9216 | 1012.88 | 79.12
303.15 K, x1 = 1 | 1012.98 | 92.97
308.15 K, x1 = 0.0936 | 1001.56 | 4.529
308.15 K, x1 = 0.1748 | 1005.06 | 7.3
308.15 K, x1 = 0.2651 | 1007.08 | 11.81
308.15 K, x1 = 0.3581 | 1008.27 | 16.78
308.15 K, x1 = 0.4952 | 1009.31 | 24.59
308.15 K, x1 = 0.6246 | 1009.93 | 32.52
308.15 K, x1 = 0.7878 | 1010.41 | 46
308.15 K, x1 = 0.9216 | 1010.57 | 64.15
308.15 K, x1 = 1 | 1010.65 | 75.58
313.15 K, x1 = 0.0936 | 998.43 | 3.946
313.15 K, x1 = 0.1748 | 1001.86 | 6.291
313.15 K, x1 = 0.2651 | 1004.02 | 10.05
313.15 K, x1 = 0.3581 | 1005.25 | 14.16
313.15 K, x1 = 0.4952 | 1006.34 | 20.59
313.15 K, x1 = 0.6246 | 1007.01 | 27.94
313.15 K, x1 = 0.7878 | 1007.53 | 38.87
313.15 K, x1 = 0.9216 | 1007.8 | 51.99
313.15 K, x1 = 1 | 1007.92 | 60.93
318.15 K, x1 = 0.0936 | 995.26 | 3.467
318.15 K, x1 = 0.1748 | 998.67 | 5.47
318.15 K, x1 = 0.2651 | 1000.91 | 8.651
318.15 K, x1 = 0.3581 | 1002.25 | 12.11
318.15 K, x1 = 0.4952 | 1003.45 | 17.45
318.15 K, x1 = 0.6246 | 1004.15 | 23.32
318.15 K, x1 = 0.7878 | 1004.74 | 32.26
318.15 K, x1 = 0.9216 | 1005.06 | 42.71
318.15 K, x1 = 1 | 1005.2 | 49.79
323.15 K, x1 = 0.0936 | 992.05 | 3.072
323.15 K, x1 = 0.1748 | 995.43 | 4.8
323.15 K, x1 = 0.2651 | 997.8 | 7.52
323.15 K, x1 = 0.3581 | 999.24 | 10.45
323.15 K, x1 = 0.4952 | 1000.53 | 14.98
323.15 K, x1 = 0.6246 | 1001.31 | 19.5
323.15 K, x1 = 0.7878 | 1001.95 | 27.35
323.15 K, x1 = 0.9216 | 1002.33 | 35.62
323.15 K, x1 = 1 | 1002.47 | 41.31
328.15 K, x1 = 0.0936 | 988.8 | 2.741
328.15 K, x1 = 0.1748 | 992.22 | 4.249
328.15 K, x1 = 0.2651 | 994.68 | 6.592
328.15 K, x1 = 0.3581 | 996.18 | 9.141
328.15 K, x1 = 0.4952 | 997.63 | 12.99
328.15 K, x1 = 0.6246 | 998.47 | 16.43
328.15 K, x1 = 0.7878 | 999.19 | 23.47
328.15 K, x1 = 0.9216 | 999.6 | 30.08
328.15 K, x1 = 1 | 999.77 | 34.72
333.15 K, x1 = 0.0936 | 985.51 | 2.461
333.15 K, x1 = 0.1748 | 988.96 | 3.788
333.15 K, x1 = 0.2651 | 991.37 | 6.05
333.15 K, x1 = 0.3581 | 993.2 | 8.041
333.15 K, x1 = 0.4952 | 994.75 | 11.37
333.15 K, x1 = 0.6246 | 995.66 | 13.93
333.15 K, x1 = 0.7878 | 996.46 | 20.41
333.15 K, x1 = 0.9216 | 996.9 | 25.64
333.15 K, x1 = 1 | 997.08 | 29.45
338.15 K, x1 = 0.0936 | 982.59 | 2.223
338.15 K, x1 = 0.1748 | 985.7 | 3.407
338.15 K, x1 = 0.2651 | 988.38 | 5.181
338.15 K, x1 = 0.3581 | 990.24 | 7.12
338.15 K, x1 = 0.4952 | 991.9 | 10.04
338.15 K, x1 = 0.6246 | 992.85 | 12.9
338.15 K, x1 = 0.7878 | 993.65 | 17.17
338.15 K, x1 = 0.9216 | 994.16 | 21.35
338.15 K, x1 = 1 | 994.39 | –
343.15 K, x1 = 0.0936 | 979.99 | 2.021
343.15 K, x1 = 0.1748 | 982.41 | 3.088
343.15 K, x1 = 0.2651 | 984.88 | 4.682
343.15 K, x1 = 0.3581 | 986.93 | 6.355
343.15 K, x1 = 0.4952 | 988.84 | 8.928
343.15 K, x1 = 0.6246 | 990.06 | 11.72
343.15 K, x1 = 0.7878 | 990.92 | 15.74
343.15 K, x1 = 0.9216 | 991.45 | 19.52
343.15 K, x1 = 1 | 991.72 | 21.98
